From patent US20230263822A1, “MODULATION OF FACTOR 11 EXPRESSION” (Ionis Pharmaceuticals, Inc., priority 2008, published 2023) come the findings set out here.

Strand notation (5' to 3'): a small letter for the sugar, then the base; units joined by * are phosphorothioate-linked, units joined directly phosphodiester-linked; [ ] holds rarer units or linkages, { } end groups; capitals alone tell only the bases. e = 2'-O-(2-methoxyethyl) (MOE); [5mC] = 5-methylcytosine; d = 2'-deoxy (DNA) A value given as a limit tells only on which side of the number the result lay.

The test system of data set [1] is human Factor 11 mRNA. Put plainly: Dose-dependent inhibition of human Factor 11 in HepG2 cells, electroporation 123.46-10,000 nM (Example 31). It is filed as cell-based. The method, then:
Cells were plated at a density of 20,000 cells per well and transfected using electroporation with 123.46 nM, 370.37 nM, 1,111.11 nM, 3,333.33 nM and 10,000 nM concentrations of antisense oligonucleotide, as specified in Table 45. After a treatment period of approximately 16 hours, RNA was isolated from the cells and Factor 11 mRNA levels were measured by quantitative real-time PCR. Human Factor 11 primer probe set RTS 2966 was used to measure mRNA levels. Factor 11 mRNA levels were adjusted according to total RNA content, as measured by RIBOGREEN. Results are presented as percent inhibition of Factor 11, relative to untreated control cells.

A short description of data set [2]: Viscosity of ISIS antisense oligonucleotides, micro-viscometer at 25 °C (Example 47). The data set is classed as physicochemical. The settings on record: for Concentration: concentration of the viscosity sample, UV reading at 260 nM at 85° C.; for Viscosity: in water, micro-viscometer at 25° C., at the concentration of the same line. The procedure: The viscosity of antisense oligonucleotides targeting human Factor 11 was measured with the aim of screening out antisense oligonucleotides which have a viscosity more than 40 cP at a concentration of 165-185 mg/mL.
ISIS oligonucleotides (32-35 mg) were weighed into a glass vial, 120 μL of water was added and the antisense oligonucleotide was dissolved into solution by heating the vial at 50° C. Part of (75 μL) the pre-heated sample was pipetted to a micro-viscometer (Cambridge). The temperature of the micro-viscometter was set to 25° C. and the viscosity of the sample was measured. Another part (20 μL) of the pre-heated sample was pipetted into 10 mL of water for UV reading at 260 nM at 85° C. (Cary UV instrument).

In data set [3] the test system is human Factor 11 mRNA. The experiment in a line: Antisense inhibition of human Factor 11 in HepG2 cells, electroporation, 8,000 nM (Example 30). The data set is classed as cell-based. The settings on record: electroporation, 8,000 nM antisense oligonucleotide. The method in brief: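 HepG2 cells electroporated with 8,000 nM 5-10-5, 5-8-5 or 6-8-6 MOE gapmers (phosphorothioate, 5-methylcytidine), ~24 h. Factor 11 mRNA quantified by qRT-PCR, normalised to RIBOGREEN total RNA. Reported as percent inhibition versus untreated cells.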

For data set [4] the following is noted: mouse, in vivo, sc, 50 mg/kg.

What is called IC50 is the concentration at which inhibition is half-maximal. The low end stands for greater potency in that assay, the high end for weaker potency in that assay. Consider “445505 (antisense e[5mC]*eG*eG*e[5mC]*eA*eT*dT*dG*dG*dT*dG*d[5mC]*dA*d[5mC]*eA*eG*eT*eT*eT*e[5mC]) [compound 445505]”, for which the “Percent inhibition of Factor 11 mRNA at 123.47 nM” value with human Factor 11 mRNA [1] (electroporation, 123.47 nM, approx. 16 hours, relative to untreated control cells) stood at 12%. Also, the “Percent inhibition of Factor 11 mRNA at 370.37 nM” value in the data set on human Factor 11 mRNA [1] (electroporation, 370.37 nM, approx. 16 hours, relative to untreated control cells) amounted to 30%. Besides, in the data set on human Factor 11 mRNA [1] (electroporation, 1,111.11 nM, approx. 16 hours, relative to untreated control cells), the “Percent inhibition of Factor 11 mRNA at 1,111.11 nM” value was determined as 39%. Besides, the “Percent inhibition of Factor 11 mRNA at 3,333.33 nM” value in the data set on human Factor 11 mRNA [1] (electroporation, 3,333.33 nM, approx. 16 hours, relative to untreated control cells) is 59%. The “Percent inhibition of Factor 11 mRNA at 10,000.0 nM” value in the data set on human Factor 11 mRNA [1] (electroporation, 10,000.0 nM, approx. 16 hours, relative to untreated control cells) turned out to be 77%. Besides, it took 1800 nM to reach half-maximal inhibition in the data set with human Factor 11 mRNA [1] (electroporation, Factor 11 mRNA expression) (IC50). In data set [2], the Concentration came out at 155 mg/mL and the Viscosity came out at 9 cP. Besides, in the data set on human Factor 11 mRNA [3], the “Percent inhibition of human Factor 11 mRNA levels” value was 89%.
In data set [2], “445509 (antisense e[5mC]*eG*eG*eA*e[5mC]*eG*dG*d[5mC]*dA*dT*dT*dG*dG*dT*eG*e[5mC]*eA*e[5mC]*eA*eG) [compound 445509]” had a Concentration of 167 mg/mL and a Viscosity above 100 cP. For the same substance, the “Percent inhibition of human Factor 11 mRNA levels” value in the data set with human Factor 11 mRNA [3] is 84%.
For “445513 (antisense eG*e[5mC]*eA*eG*e[5mC]*eG*dG*dA*d[5mC]*dG*dG*d[5mC]*dA*dT*eT*eG*eG*eT*eG*e[5mC]) [compound 445513]”, in that order: 167 mg/mL, 34 cP and 85%.
On to “445530 (antisense eG*e[5mC]*eA*eT*eT*dG*dG*dT*dG*d[5mC]*dA*d[5mC]*dA*eG*eT*eT*eT*e[5mC]) [compound 445530]”, for which, in data set [2], the Concentration was found to be 177 mg/mL and the Viscosity turned out to be 25 cP. In addition, the “Percent inhibition of human Factor 11 mRNA levels” value in the data set with human Factor 11 mRNA [3] worked out at 83%.
In the case of “ISIS 445513, (antisense GCAGCGGACGGCATTGGTGC; 6-8-6 MOE gapmer, further chemistry not given here)”, in data set [4], the HCT is on record as 50%, the RBC turned out to be 9.8, the WBC is 7 and the hemoglobin is given as 15.0 g/dL.
